The text below walks through data of paper PMC6404402, “Design of indole- and MCR-based macrocycles as p53-MDM2 antagonists” (Beilstein Journal of Organic Chemistry, 2019).

The nature of data set [1]: Ugi macrocyclisation (intramolecular U-4C-3CR type): alpha,omega-amino acid + indole-3-carboxaldehyde (imine formation, MW 120 °C, 1 h), then tert-butyl isocyanide (MW 120 °C, 1 h); ring bond formed = amide between carboxyl C and amine N (via Mumm acyl transfer). The following applies: the molecule shown is the open-chain precursor, MeOH, 100.0 mM, 2.0 h.
Data set [2] addresses 15N-labeled MDM2 (N-terminal domain of human MDM2, residues 1-118) (Homo sapiens, UniProt Q00987). Description: 1H,15N HSQC NMR titration of 15N-labeled MDM2. The following applies: 1H,15N HSQC titration, 7–9 ligand/protein ratios 0 to 5; 0.20–0.35 mM 15N MDM2; 50 mM phosphate pH 7.4, 150 mM NaCl, 5 mM DTT, 10% D2O; 300K; 50 mM ligand stock in DMSO; weighted mean of KD's of most perturbed residues in fast chemical exchange. The data set is classed as binding.
Experimental: Protein expression and purification
Fragment of the N-terminal domain of human MDM2 (residues 1-118) was cloned into the pET-20 (Novagen) and expressed in E. coli strain BL21-CodonPlus(DE3)-RIL as described previously.1 In brief, cells were cultured at 37 °C. Protein expression was induced with 1 mM IPTG at OD600 of 0.8 and cultured for additional 5 h at 37 °C. Cells were collected by centrifugation and lysed by sonication. Inclusion bodies were collected by centrifugation, washed with PBS containing 0.05% Triton-X100 and subsequently solubilized in 6 M guanidine hydrochloride in 100 mM Tris-HCl, pH 8.0, containing 1 mM EDTA and 10 mM β-mercaptoethanol. The protein was dialyzed against 4 M guanidine hydrochloride pH 3.5 supplemented with 10 mM β-mercaptoethanol. Following, the protein was refolded by dropwise addition into 10 mM Tris-HCl, pH 7.0, containing 1 mM EDTA and 10 mM β-mercaptoethanol and slow mixing overnight at 4 °C. Ammonium sulfate was added to the final concentration of 1.5 M and the refolded protein was recovered on Butyl Sepharose 4 Fast Flow (GE Healthcare). […]
Uniform 15N isotope labeling was achieved by expression of the protein in the M9 minimal media containing 15NH4Cl as the sole nitrogen source. […] Water suppression was carried out using the WATERGATE sequence.2 All the spectra were recorded at 300K using a Bruker Avance 600 MHz spectrometer with the Cryo-Platform.

Values joined by “and” are separate entries in the source; they are usually repeats but may differ in a detail not shown here. Equal values may be shown once.

Chain of 15N-labeled MDM2 (N-terminal domain of human MDM2, residues 1-118) (Q00987 1-118): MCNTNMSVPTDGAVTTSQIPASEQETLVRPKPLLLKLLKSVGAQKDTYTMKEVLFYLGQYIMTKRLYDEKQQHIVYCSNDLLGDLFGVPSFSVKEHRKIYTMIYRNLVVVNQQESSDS

Consider `O=C(O)COCC(=O)NCCCCCCN=Cc1c[nH]c2ccccc12`, for which the ring closure, isolated yield in data set [1] (13-membered ring) came out at 51%. Turning to `O=C(O)COCC(=O)NCCCCN=Cc1c[nH]c2ccccc12` [2a], the ring closure, isolated yield in data set [1] (11-membered ring) came to 40%. For the compound `O=C(O)COCC(=O)NCCCCCN=Cc1c[nH]c2ccccc12` [2b], the ring closure, isolated yield in data set [1] (12-membered ring) came to 35%. In the case of `O=C(O)COCC(=O)NCCCCCCCCN=Cc1c[nH]c2ccccc12` [2d], the ring closure, isolated yield in data set [1] (15-membered ring) worked out at 33%. Take `O=C(O)COCC(=O)NCCCCCCCCCCN=Cc1c[nH]c2ccccc12` [2e]: the ring closure, isolated yield in data set [1] (17-membered ring) turned out to be 31%.

`O=C(O)COCC(=O)NCCCCCCCCCCCCN=Cc1c[nH]c2ccccc12` [2f]: the ring closure, isolated yield in data set [1] (19-membered ring) is 59%. Regarding `CC(C)(C)NC(=O)C(c1c[nH]c2cc(Cl)ccc12)N1CCCCCCNC(=O)COCC1=O` (centres unmarked) [2g], the Kd in data set [2] was 9 µM and 8.9 µM. `O=C(O)COCC(=O)NCCCCCCN=Cc1c[nH]c2cc(Cl)ccc12` [2g]: the ring closure, isolated yield in data set [1] (13-membered ring) stood at 35%. For `O=C(O)COCC(=O)NCCCCCCCCN=Cc1c[nH]c2cc(Cl)ccc12` [2h], in data set [1] (15-membered ring), the ring closure, isolated yield came to 25%. `O=C(O)COCC(=O)NCCCCCCCCCCN=Cc1c[nH]c2cc(Cl)ccc12` [2i]: the ring closure, isolated yield in data set [1] (17-membered ring) worked out at 51%. Turning to `O=C(O)COCC(=O)NCCCCCCCCCCCCN=Cc1c[nH]c2cc(Cl)ccc12` [2j], the ring closure, isolated yield in data set [1] (19-membered ring) was 60%. Regarding `O=C(O)CSCC(=O)NCCCCN=Cc1c[nH]c2cc(Cl)ccc12` [2k], the ring closure, isolated yield in data set [1] (11-membered ring) turned out to be 29%. For the compound `O=C(O)CSCC(=O)NCCCCCN=Cc1c[nH]c2cc(Cl)ccc12` [2l], in data set [1] (12-membered ring), the ring closure, isolated yield amounted to 35%. On to `O=C(O)CSCC(=O)NCCCCCCN=Cc1c[nH]c2cc(Cl)ccc12` [2m], for which, in data set [1] (13-membered ring), the ring closure, isolated yield came out at 39%.

`O=C(O)CSCC(=O)NCCCCCCCCN=Cc1c[nH]c2cc(Cl)ccc12` [2n]: the ring closure, isolated yield in data set [1] (15-membered ring) came out at 39%.

For the compound `O=C(O)CSCC(=O)NCCCCCCCCCCN=Cc1c[nH]c2cc(Cl)ccc12` [2o], the ring closure, isolated yield in data set [1] (17-membered ring) turned out to be 41%. `O=C(O)CSCC(=O)NCCCCCCCCCCCCN=Cc1c[nH]c2cc(Cl)ccc12` [2p]: in data set [1] (19-membered ring), the ring closure, isolated yield was 52%.
